From patent publication US20240116921A1, “LACTAM (HETERO)[…] DERIVATIVES AS INHIBITORS OF ERBB2” (EnLiven Therapeutics, Inc., priority 2020, published 2024)
Counter-ions that a name gives are not always drawn.

What was measured:
[1] = biological target: Ba/F3 ERBB2 A775_G776insYVMA (Homo sapiens, UniProt P04626, DUP772-775, cells depend on it); assay: Cell viability assay, Ba/F3 ERBB2 A775_G776insYVMA; assay type: cell-based, mouse; conditions: Ba/F3 ERBB2 YVMA cells, cell viability, 72 hours, CellTiter Glo; Table B5; read-out: Ba/F3 ERBB2 YVMA, IC50
Chain of Ba/F3 ERBB2 A775_G776insYVMA (P04626 with tags, fused parts or gaps DUP772-775): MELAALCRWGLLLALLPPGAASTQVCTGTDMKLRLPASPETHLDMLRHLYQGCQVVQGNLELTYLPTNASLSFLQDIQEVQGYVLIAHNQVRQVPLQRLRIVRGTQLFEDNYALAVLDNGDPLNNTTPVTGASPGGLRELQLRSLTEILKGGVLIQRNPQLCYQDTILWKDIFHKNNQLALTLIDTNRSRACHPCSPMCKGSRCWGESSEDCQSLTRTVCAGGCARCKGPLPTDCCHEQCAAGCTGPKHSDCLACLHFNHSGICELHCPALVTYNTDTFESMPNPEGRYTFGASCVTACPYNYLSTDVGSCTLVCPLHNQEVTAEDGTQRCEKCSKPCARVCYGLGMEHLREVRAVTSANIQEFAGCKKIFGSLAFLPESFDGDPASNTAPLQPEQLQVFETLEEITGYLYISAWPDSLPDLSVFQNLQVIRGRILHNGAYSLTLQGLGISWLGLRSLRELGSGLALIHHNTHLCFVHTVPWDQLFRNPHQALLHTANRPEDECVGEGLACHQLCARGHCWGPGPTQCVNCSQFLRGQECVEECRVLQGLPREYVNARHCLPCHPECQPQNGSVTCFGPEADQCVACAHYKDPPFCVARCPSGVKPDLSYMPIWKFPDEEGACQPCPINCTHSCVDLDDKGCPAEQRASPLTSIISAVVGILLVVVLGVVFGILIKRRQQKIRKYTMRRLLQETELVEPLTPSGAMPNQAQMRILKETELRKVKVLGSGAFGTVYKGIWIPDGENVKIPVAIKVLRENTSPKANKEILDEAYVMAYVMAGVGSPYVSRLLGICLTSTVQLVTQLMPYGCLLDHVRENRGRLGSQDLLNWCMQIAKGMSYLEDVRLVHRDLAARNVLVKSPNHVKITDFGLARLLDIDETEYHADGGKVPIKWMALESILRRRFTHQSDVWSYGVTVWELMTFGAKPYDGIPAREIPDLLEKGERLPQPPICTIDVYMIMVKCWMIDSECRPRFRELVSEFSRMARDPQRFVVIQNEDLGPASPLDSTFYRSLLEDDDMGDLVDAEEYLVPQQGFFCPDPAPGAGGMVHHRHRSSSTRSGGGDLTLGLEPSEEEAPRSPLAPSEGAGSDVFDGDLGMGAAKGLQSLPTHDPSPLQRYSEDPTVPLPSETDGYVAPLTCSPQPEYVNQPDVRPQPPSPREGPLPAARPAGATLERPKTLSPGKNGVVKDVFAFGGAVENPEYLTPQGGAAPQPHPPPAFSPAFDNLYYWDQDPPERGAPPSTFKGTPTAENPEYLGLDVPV
Description: Cells were treated with compounds, and cell viability was measured as a metric of kinase inhibition.
The Ba/F3 cell line is IL-3-dependent mouse cell line derived from the C3H mouse strain. Ba/F3 cell lines were engineered to express human ERBB2 or EGFR kinases, rendering the cells IL-3 independent. The lines were generated via retroviral transduction utilizing a Moloney murine leukemia virus (MMLV) promoter, and constructs are stably integrated into the cell genome. The sequences of the ERBB2 and EGFR genes used were NCBI Reference Sequences NM_004448.3 and NM_005228.3, respectively.
Similarly, Ba/F3 cell lines engineered to express EGFR, ERBB2, or ERBB2 mutants were grown, harvested, counted and seeded at 3000 cells per well in 96-well plates. A subset of wells contained media only (low control, “LC”).
Table B1 provides the growth media and number of cells seeded per well for the each cell line.
Plates were placed in a 37° C., 5% CO2 incubator for 72 hours. Plates were then removed from the incubator and equilibrated for 15 minutes at room temperature. 40 μl of CellTiter Glo reagent (Promega) was added to measure the relative level of metabolically active cells by quantifying intracellular ATP concentrations. Plates were incubated for 30 minutes at room temperature, and luminescence was measured. […] Graphical curves were fitted using a nonlinear regression model with a sigmoidal dose response.

[2] = biological target: T1, phosphorylated EGFR (pEGFR) (Homo sapiens, UniProt P00533); assay: Detection of phosphorylated EGFR (pEGFR) in EGF-stimulated A431 cells; assay type: cell-based; conditions: A431 cells (10% FBS), 4 hours incubation, EGF 30 ng/mL 10 minutes, AlphaLISA
T1 construct: performed to measure phosphorylated EGFR levels using A431 cells (10% FBS); endogenous in cells; host or cells: A431
T1 sequence (P00533 25-1210): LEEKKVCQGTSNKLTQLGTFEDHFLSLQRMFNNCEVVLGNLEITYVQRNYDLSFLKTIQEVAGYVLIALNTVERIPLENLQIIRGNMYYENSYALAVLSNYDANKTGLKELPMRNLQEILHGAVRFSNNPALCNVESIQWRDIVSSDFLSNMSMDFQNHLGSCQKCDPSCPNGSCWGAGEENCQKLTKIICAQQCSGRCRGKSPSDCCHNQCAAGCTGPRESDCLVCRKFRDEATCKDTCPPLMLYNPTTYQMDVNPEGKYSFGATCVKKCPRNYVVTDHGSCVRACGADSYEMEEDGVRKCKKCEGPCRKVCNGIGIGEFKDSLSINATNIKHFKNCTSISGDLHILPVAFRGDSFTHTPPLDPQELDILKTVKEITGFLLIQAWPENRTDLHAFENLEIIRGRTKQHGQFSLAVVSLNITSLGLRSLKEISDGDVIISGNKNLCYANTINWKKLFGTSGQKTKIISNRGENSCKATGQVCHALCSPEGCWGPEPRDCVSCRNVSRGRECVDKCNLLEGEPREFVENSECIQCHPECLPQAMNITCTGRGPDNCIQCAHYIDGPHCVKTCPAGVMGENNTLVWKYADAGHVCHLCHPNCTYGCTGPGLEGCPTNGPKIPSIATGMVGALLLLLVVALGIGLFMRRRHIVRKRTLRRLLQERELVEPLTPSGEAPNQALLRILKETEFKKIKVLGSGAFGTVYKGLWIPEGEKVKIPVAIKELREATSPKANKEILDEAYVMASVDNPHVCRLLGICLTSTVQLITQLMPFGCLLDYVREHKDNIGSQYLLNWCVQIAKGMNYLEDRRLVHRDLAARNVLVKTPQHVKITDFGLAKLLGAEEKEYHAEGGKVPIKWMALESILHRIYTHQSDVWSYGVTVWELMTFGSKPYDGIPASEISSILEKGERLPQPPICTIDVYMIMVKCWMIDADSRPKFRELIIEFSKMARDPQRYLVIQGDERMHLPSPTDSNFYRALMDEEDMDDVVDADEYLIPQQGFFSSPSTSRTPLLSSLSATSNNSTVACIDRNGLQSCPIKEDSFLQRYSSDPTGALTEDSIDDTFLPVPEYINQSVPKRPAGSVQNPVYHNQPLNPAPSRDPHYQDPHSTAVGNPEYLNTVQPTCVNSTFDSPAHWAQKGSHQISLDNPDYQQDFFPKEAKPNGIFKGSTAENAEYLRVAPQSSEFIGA
Description: Enzyme-linked immunosorbent assays (ELISA) were performed to measure phosphorylated EGFR levels using A431 cells (10% FBS). A431 (1.0*10^4 cells/40 μl/well) cells were seeded in 384 well. Compounds were dissolved in DMSO, serially diluted in DMSO and then were added, mixed, and incubated for 4 hours at 37° C., 5% CO2. Following the 4-hours incubation, cells were stimulated for 10 minutes with EGF (Invitrogen, cat #PHG0311) at a final concentration of 30 ng/mL in the incubator. The media was aspirated and cells were lysed in 10 μL lysis buffer with protease and phosphatase inhibitors (PerkinElmer, cat #ALSU-PEGFR-A50K). The plates were placed on a shaker for 5 minutes and then incubated for 30 min at 4° C. for complete lysis. The lysate was transferred to an Optiplate (Perkin Elmer, cat #6007290).
Acceptor mix (PerkinElmer, cat #ALSU-PEGFR-A50K) was prepared just before use and 5 μL was dispensed to all the wells, followed by a 1.5-2 h incubation at room temperature in dark. The donor mix (PerkinElmer, cat #ALSU-PEGFR-A50K) was prepared under low light conditions prior to use and […] of donor mix was added to all the wells under subdued lighting or green filters. The plates were placed on a shaker for 5 min, sealed, and incubated overnight at room temperature in dark. Plates were read on the Envision (PerkinElmer) using standard AlphaLISA settings.
The percentage of inhibition on EGFR phosphorylation was calculated following equation: % Inhibition=100×(LumHC−LumSample)/(LumHC−LumLC). The low and high controls (LC/HC) are generated from lysate from wells with cells treated with DMSO or […] Staurosporine (BioAustralis, cat #BIA-S1086), […]. IC50 values were calculated by fitting the Curve using XLfit (v5.3.1.3), equation 201: Y=Bottom+(Top−Bottom)/(1+10^((Log IC50−X)*HillSlope)).

[3] = biological target: T2, phosphorylated ERBB2 (pERBB2) (Homo sapiens, UniProt P04626); assay: Detection of phosphorylated ERBB2 (pERBB2) by ELISA in BT-474 cells; assay type: cell-based; conditions: four hours incubation
T2 construct: endogenous in cells; host or cells: BT-474
T2 sequence (P04626 23-1255): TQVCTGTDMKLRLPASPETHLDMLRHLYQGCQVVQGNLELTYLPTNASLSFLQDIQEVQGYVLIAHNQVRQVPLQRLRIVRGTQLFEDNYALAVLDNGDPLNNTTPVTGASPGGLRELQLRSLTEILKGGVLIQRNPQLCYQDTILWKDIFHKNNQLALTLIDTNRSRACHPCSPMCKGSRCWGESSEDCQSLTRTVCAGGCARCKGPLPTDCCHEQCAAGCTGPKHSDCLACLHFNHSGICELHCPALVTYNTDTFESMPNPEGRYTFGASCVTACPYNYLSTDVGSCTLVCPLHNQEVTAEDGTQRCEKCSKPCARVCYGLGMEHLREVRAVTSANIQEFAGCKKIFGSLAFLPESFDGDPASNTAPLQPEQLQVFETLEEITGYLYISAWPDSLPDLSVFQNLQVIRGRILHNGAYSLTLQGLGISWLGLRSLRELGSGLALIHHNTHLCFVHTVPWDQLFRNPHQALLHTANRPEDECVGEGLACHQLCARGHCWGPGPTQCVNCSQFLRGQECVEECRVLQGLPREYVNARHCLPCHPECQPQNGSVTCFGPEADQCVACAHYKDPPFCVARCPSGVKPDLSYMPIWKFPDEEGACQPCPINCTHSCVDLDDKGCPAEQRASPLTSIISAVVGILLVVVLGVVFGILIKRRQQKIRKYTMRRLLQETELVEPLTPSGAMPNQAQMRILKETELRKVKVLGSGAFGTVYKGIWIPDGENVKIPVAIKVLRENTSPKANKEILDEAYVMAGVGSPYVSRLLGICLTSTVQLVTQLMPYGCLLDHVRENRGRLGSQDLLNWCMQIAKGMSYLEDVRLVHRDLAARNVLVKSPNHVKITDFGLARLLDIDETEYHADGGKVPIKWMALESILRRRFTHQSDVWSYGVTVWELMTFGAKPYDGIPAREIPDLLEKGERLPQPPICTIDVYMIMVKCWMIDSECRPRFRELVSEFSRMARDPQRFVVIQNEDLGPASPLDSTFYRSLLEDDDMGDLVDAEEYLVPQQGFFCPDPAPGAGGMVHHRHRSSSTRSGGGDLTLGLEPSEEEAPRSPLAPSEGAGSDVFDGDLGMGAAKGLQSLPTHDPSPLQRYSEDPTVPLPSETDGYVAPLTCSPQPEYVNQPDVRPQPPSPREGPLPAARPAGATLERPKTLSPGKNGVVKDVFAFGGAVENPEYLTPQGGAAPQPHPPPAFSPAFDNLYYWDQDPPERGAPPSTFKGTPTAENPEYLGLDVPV
Description: BT-474 cells were seeded into a 96-well at 2.0*10^4 cells/100 μl/well.
Compounds were dissolved and serially diluted in DMSO. The compounds were then were added, mixed, and incubated for four hours at 37° C., 5% CO2. Compounds were added using four-fold dilutions at final concentrations ranging from 10 μM to 0.01 nM.
Following the four hour incubation with compounds, cell lysates were prepared.
Plates were centrifuged for 5 min at 3000 RPM, and supernatant was removed from each well. Cells were washed 3 times by resuspension in 150 μl PBS, followed by centrifugation and removal of the supernatant, as above. […] Cells were incubated with lysis buffer for 1 hour at 4° C., and then stored at −80° C.
Enzyme-linked immunosorbent assays (ELISA) were performed to measure phosphorylated ERBB2 levels. […] The next day, plates were washed with PBS+0.05% Tween20 (PBST). 150 μl of 5% BSA blocking solution was added for 1 hour at room temperature, with shaking. Plates were washed with PBST. Cell lysates were thawed and 100 μl of lysate was added to the ELISA plate. The plates were incubated for 2 hours at room temperature, with shaking. […] Plates were incubated for 1 hour at room temperature, with shaking. Plates were then washed with PBST, and 100 μl TMB substrate solution (R&D Systems, cat #DY999) was added. Plate were incubated in the dark for 20 minutes at room temperature. 50 μl of Stop solution (R&D Systems, cat #DY994) (50 μl) was added to each well and mixed.
Optical density at 450 nm was read on an EnSpire plate reader (Perkin Elmer). The remaining kinase activity by calculated using the following formula: % Relative activity=100×(A450sample−A450LC)/(A450HC−A450LC). The low and high control values (“LC” and “HC”) were generated from lysate from wells without cells or with cells treated with 0.1% DMSO, respectively.

Structure (SMILES)	IC50 [2]	IC50 [3]	GI50 [1]
C=C1C(=O)N(c2cc3c(Nc4ccc(Oc5ccn6ncnc6c5)c(C)c4)ncnc3cn2)C2CC12 (single isomer, unassigned; enantiomer 1) [Example S40, Enantiomer # 1, 2-{4-[(3-methyl-4-{[1,2,4]triazolo[1,5-a]pyridin-7-yloxy}phenyl)amino]pyrido[3,4-d]pyrimidin-6-yl}-4-methylidene-2-azabicyclo[3.1.0]hexan-3-one Enantiomer 1]	0.103 µM	0.0099 µM	0.00347 µM
Cc1cc(Nc2ncnc3ccc(N4CC(C)/C(=C\CN(C)C)C4=O)nc23)ccc1Oc1ccc2c(c1)ncn2C (single isomer, unassigned; enantiomer 1) [Example S58, Enantiomer # 1, (3E)-3-[2-(dimethylamino)ethylidene]-4-methyl-1-[4-({3-methyl-4-[(1-methyl-1,3-benzodiazol-5-yl)oxy]phenyl}amino)pyrido[3,2-d]pyrimidin-6-yl]pyrrolidin-2-one hydrochloride Enantiomer 1]	0.264 µM	0.0297 µM	0.00146 µM
C=C1C(=O)N(c2cc3c(Nc4ccc(Oc5ccn6ncnc6c5)c(C)c4)ncnc3cn2)C2CC12 (single isomer, unassigned; enantiomer 2) [Example S40, Enantiomer # 2, 2-{4-[(3-methyl-4-{[1,2,4]triazolo[1,5-a]pyridin-7-yloxy}phenyl)amino]pyrido[3,4-d]pyrimidin-6-yl}-4-methylidene-2-azabicyclo[3.1.0]hexan-3-one Enantiomer 2]	6.45 µM	0.0355 µM	0.0681 µM
Cc1cc(Nc2ncnc3ccc(N4CC(C)/C(=C\CN(C)C)C4=O)nc23)ccc1Oc1ccc2c(c1)ncn2C (single isomer, unassigned; enantiomer 2) [Example S58, Enantiomer # 2, (3E)-3-[2-(dimethylamino)ethylidene]-4-methyl-1-[4-({3-methyl-4-[(1-methyl-1,3-benzodiazol-5-yl)oxy]phenyl}amino)pyrido[3,2-d]pyrimidin-6-yl]pyrrolidin-2-one hydrochloride Enantiomer 2]	> 10 µM	0.0442 µM	0.0133 µM
C=C1CCN(c2cc3c(Nc4ccc(Oc5ccn6ncnc6c5)c(Cl)c4)ncnc3cc2OCCN(C)C)C1=O [Compound 25, 1-{4-[(3-chloro-4-{[1,2,4]triazolo[1,5-a]pyridin-7-yloxy}phenyl)amino]-7-[2-(dimethylamino)ethoxy]quinazolin-6-yl}-3-methylidenepyrrolidin-2-one]	> 10 µM	1.19 µM	> 0.5 µM
Cc1cc(Nc2ncnc3ccc(N4CC/C(=C\CCN(C)C)C4=O)cc23)ccc1Oc1ccn2ncnc2c1 [Compound 26, (3E)-3-[3-(dimethylamino)propylidene]-1-{4-[(3-methyl-4-{[1,2,4]triazolo[1,5-a]pyridin-7-yloxy}phenyl)amino]quinazolin-6-yl}pyrrolidin-2-one]	1.46 µM	0.0117 µM	0.00861 µM

Further lines, with some results ahead:

IC50 [2]	IC50 [3]	Structure (SMILES)	GI50 [1]
> 10 µM	0.71 µM	CC1CN(c2cc3c(Nc4cc(F)c(Oc5ccc6c(c5)nnn6C)cc4F)ncnc3cn2)C(=O)/C1=C/CN(C)C (single isomer, unassigned) [Example S125, Enantiomer #1, (3E)-1-[4-({2,5-difluoro-4-[(1-methyl-1,2,3-benzotriazol-5-yl)oxy]phenyl}amino)pyrido[3,4-d]pyrimidin-6-yl]-3-[2-(dimethylamino)ethylidene]-4-methylpyrrolidin-2-one]	> 0.5 µM
2.3 µM	0.076 µM	CC1CN(c2cc3c(Nc4cc(F)c(Oc5ccc6c(c5)nnn6C)cc4F)ncnc3cn2)C(=O)/C1=C/CN(C)C (single isomer, unassigned) [Example S125, Enantiomer #2, (3E)-1-[4-({2,5-difluoro-4-[(1-methyl-1,2,3-benzotriazol-5-yl)oxy]phenyl}amino)pyrido[3,4-d]pyrimidin-6-yl]-3-[2-(dimethylamino)ethylidene]-4-methylpyrrolidin-2-one]	0.027 µM
0.299 µM	0.0409 µM	Cc1cc(Nc2ncnc3ccc(N4CC(C)C(=CCN(C)C)C4=O)nc23)ccc1Oc1ccc2c(c1)nnn2C (single isomer, unassigned) [Example S126, Enantiomer #1, 3-[2-(dimethylamino)ethylidene]-4-methyl-1-[4-({3-methyl-4-[(1-methyl-1,2,3-benzotriazol-5-yl)oxy]phenyl}amino)pyrido[3,2-d]pyrimidin-6-yl]pyrrolidin-2-one]	0.00204 µM
> 10 µM	0.401 µM	Cc1cc(Nc2ncnc3ccc(N4CC(C)C(=CCN(C)C)C4=O)nc23)ccc1Oc1ccc2c(c1)nnn2C (single isomer, unassigned) [Example S126, Enantiomer #2, 3-[2-(dimethylamino)ethylidene]-4-methyl-1-[4-({3-methyl-4-[(1-methyl-1,2,3-benzotriazol-5-yl)oxy]phenyl}amino)pyrido[3,2-d]pyrimidin-6-yl]pyrrolidin-2-one]	0.205 µM
0.575 µM	0.014 µM	CC1CN(c2ccc3ncnc(Nc4ccc(Oc5ccn6ncnc6c5)c(F)c4)c3n2)C(=O)/C1=C/CN(C)C (single isomer, unassigned) [Example S127, Enantiomer #1, (E)-1-(4-((4-([1,2,4]triazolo[1,5-a]pyridin-7-yloxy)-3-fluorophenyl)amino)pyrido[3,2-d]pyrimidin-6-yl)-3-(2-(dimethylamino)ethylidene)-4-methylpyrrolidin-2-one]	0.00288 µM
> 10 µM	0.146 µM	CC1CN(c2ccc3ncnc(Nc4ccc(Oc5ccn6ncnc6c5)c(F)c4)c3n2)C(=O)/C1=C/CN(C)C (single isomer, unassigned) [Example S127, Enantiomer #2, (E)-1-(4-((4-([1,2,4]triazolo[1,5-a]pyridin-7-yloxy)-3-fluorophenyl)amino)pyrido[3,2-d]pyrimidin-6-yl)-3-(2-(dimethylamino)ethylidene)-4-methylpyrrolidin-2-one]	0.418 µM
